Consider 26 molecules from US9204645B2, “Insecticidal aromatic amides” (BAYER INTELLECTUAL PROPERTY GMBH, priority 2011, dated 2015).

The nature of data set [1]: logP determination by HPLC on a reversed-phase column (C18), EEC Directive 79/831 Annex V.A8. The data set is classed as physicochemical. Conditions: HPLC-MS, C18, acetonitrile (0.1% formic acid)/water (0.09% formic acid) gradient, read-out: log P. As for the experimental part: HPLC-MS^a): mass (m/z)=462 […]. ^a) Note regarding the determination of the logP values and mass detection: The determination of the given logP values was carried out in accordance with EEC Directive 79/831 Annex V.A8 by HPLC (High Performance Liquid Chromatography) on a reversed-phase column (C18). Agilent 1100 LC system; 50*4.6 Zorbax Eclipse Plus C18 1.8 micron; mobile phase A: acetonitrile (0.1% formic acid); mobile phase B: water (0.09% formic acid); linear gradient from 10% acetonitrile to 95% acetonitrile in 4.25 min, then 95% acetonitrile for a further 1.25 min; oven temperature 55° C.; flow rate: 2.0 ml/min Mass detection is via an Agilent MSD system.
The calibration is carried out using unbranched alkan-2-ones (having 3 to 16 carbon atoms) with known logP values (determination of the logP values by the retention times using linear interpolation between two successive alkanones). The lambda-maX values were determined in the maxima of the chromatographic signals using the UV spectra from 200 nm to 400 nm.

Data set [2] concerns greenhouse red spider mite (Tetranychus urticae). In words: Tetranychus urticae spray test, OP-resistant (TETRUR), bean leaf discs. Conditions: for inhibition at 500 g/ha / inhibition at 100 g/ha: Tetranychus urticae, foliar, 144 h, read-out: % Activity; for efficacy compared to similar compounds of the prior art: TETRUR spray test, leaf discs. The data set is classed as in vivo. As for the experimental part: Tetranychus urticae—Spray Test; OP-resistant (TETRUR)
(§1) • Solvents: 78.0 parts by weight of acetone • 1.5 parts by weight of dimethylformamide • Emulsifier: 0.5 part by weight of alkylaryl polyglycol ether
(§2) To produce a suitable preparation of active compound, 1 part by weight of active compound is mixed with the stated amounts of solvents and emulsifier, and the concentrate is diluted with emulsifier-containing water to the desired concentration.
Discs of bean leaves (Phaseolus vulgaris) which are infested by all stages of the greenhouse red spider mite (Tetranychus urticae) are sprayed with an active compound preparation of the desired concentration.
After the desired period of time, the effect in % is determined. 100% means that all of the spider mites have been killed; 0% means that none of the spider mites have been killed.

The test system of data set [3] is larvae of the mustard beetle (Phaedon cochleariae). In words: Phaedon cochleariae spray test (PHAECO). Format: in vivo. The note with it: for inhibition at 20 g/ha / inhibition at 100 g/ha: Phaedon cochleariae, 168 h; for inhibition at 20 g/ha: read-out: % Activity; for efficacy compared to similar compounds of the prior art: PHAECO spray test. As for the experimental part:
Phaedon Cochleariae—Spray Test (PHAECO)
as §1, §2
After the desired period of time, the effect in % is determined 100% means that all of the beetle larvae have been killed; 0% means that none of the beetle larvae have been killed.

Data set [4] concerns green peach aphid (Myzus persicae). In words: Myzus spray test (MYZUPE). Format: in vivo. The note with it: for inhibition at 20 g/ha / inhibition at 100 g/ha / inhibition at 500 g/ha: Myzus persicae, 144 h; for inhibition at 20 g/ha / inhibition at 100 g/ha: read-out: % Activity; for efficacy compared to similar compounds of the prior art: MYZUPE spray test. As for the experimental part: Myzus—Spray Test (MYZUPE)
as §1, §2
Discs of Chinese cabbage leaves (Brassica pekinensis) infested by all stages of the green peach aphid (Myzus persicae) are sprayed with an active compound preparation of the desired concentration.
After the desired period of time, the effect in % is determined. 100% here means that all of the aphids have been killed; 0% means that no aphids have been killed.

Read-outs that look alike come from different tables or passages of the source.

Consider `Cn1nc(C(F)(F)C(F)(F)F)c([N+](=O)[O-])c1C(=O)O` [1-Methyl-4-nitro-3-(pentafluoroethyl)-1H-pyrazole-5-carboxylic acid], for which the chromatographic logP in data set [1] turned out to be 1.41.
On to `CCC(=O)NC(C)c1cc(NC(=O)c2c(C(F)(F)F)c(C(F)(F)C(F)(F)F)nn2C)ccc1Cl` (stereo not drawn) [Am-28, N-{4-chloro-3-[1-(propionylamino)ethyl]phenyl}-1-methyl-3-(pentafluoroethyl)-4-(trifluoromethyl)-1H-pyrazole-5-carboxamide], for which the chromatographic logP in data set [1] came out at 3.55.
For `CCCC(=O)NCc1cc(NC(=O)c2c(C(F)(F)F)c(C(F)(F)C(F)(F)F)nn2C)ccc1Cl` [Am-41, N-{3-[(butyrylamino)methyl]-4-chlorophenyl}-1-methyl-3-(pentafluoroethyl)-4-(trifluoromethyl)-1H-pyrazole-5-carboxamide], the chromatographic logP in data set [1] came to 3.7.
As to `CCC(=O)NCc1cc(N(C)C(=O)c2c(C(F)(F)F)c(C(F)(F)C(F)(F)F)nn2C)ccc1F` [Example 1], the inhibition at 500 g/ha in data set [2] was 100%. The values for the inhibition at 20 g/ha in data set [3] and in data set [4] were 100% and 90%, respectively.
With `CCN(C(=O)c1c(C(F)(F)F)c(C(F)(F)C(F)(F)F)nn1C)c1ccc(F)c(CNC(=O)C2CC2)c1` [Example 2], the “efficacy compared to similar compounds of the prior art” value (shortened to “efficacy compared to similar compounds”) in data set [2] and in data set [4] was “superior efficacy” throughout. Also, the inhibition at 100 g/ha in data set [2] was 100%; in data set [4], 90%.
With `CCC(=O)NCc1cc(N(CC)C(=O)c2c(C(F)(F)F)c(C(F)(F)C(F)(F)F)nn2C)ccc1F` [Example 3], the “efficacy compared to similar compounds” value in data set [2], in data set [3] and in data set [4] was “superior efficacy” throughout. Moreover, the inhibition at 500 g/ha in data set [2] (TETRUR, 500 g/ha, 6 dat) came out at 100%. For the same molecule, the inhibition at 20 g/ha in data set [3] (PHAECO, 20 g/ha, 7 dat) was 100%; in data set [4] (MYZUPE, 20 g/ha, 6 dat), 100%.
For `CCC(=O)NCc1cc(NC(=O)c2c(C(F)(F)F)c(C(F)(F)C(F)(F)F)nn2C)ccc1F` [Example 4], the “efficacy compared to similar compounds” value in data set [2], in data set [3] and in data set [4] was “superior efficacy” throughout. For the same molecule, the inhibition at 500 g/ha was 100% in data set [2] (TETRUR, 500 g/ha, 6 dat) and 100% in data set [4] (MYZUPE, 6 dat). In addition, in data set [3] (PHAECO, 20 g/ha, 7 dat), the inhibition at 20 g/ha was 100%.
`CC(=O)NCc1c(F)ccc(N(C)C(=O)c2c(C(F)(F)F)c(C(F)(F)C(F)(F)F)nn2C)c1F` [Example 7, N-[3-(acetamidomethyl)-2,4-difluorophenyl]-N,1-dimethyl-3-(pentafluoroethyl)-4-(trifluoromethyl)-1H-pyrazole-5-carboxamide]: the inhibition at 500 g/ha in data set [2] (TETRUR, 500 g/ha, 6 dat) is 100%; in data set [4] (MYZUPE, 6 dat), 100%. The inhibition at 100 g/ha in data set [3] (PHAECO, 7 dat) came out at 100%. Moreover, the chromatographic logP in data set [1] was 2.85.
Consider `CC(=O)NCc1cc(N(C)C(=O)c2c(C(F)(F)F)c(C(F)(F)C(F)(F)F)nn2C)ccc1F` [Example 8], for which the inhibition at 500 g/ha in data set [2] (TETRUR, 500 g/ha, 6 dat) was 100%; in data set [4] (MYZUPE, 6 dat) it was 100%.
Turning to `CCN(C(=O)c1c(C(F)(F)F)c(C(F)(F)C(F)(F)F)nn1C)c1ccc(F)c(CNC(C)=O)c1` [Example 9], the “efficacy compared to similar compounds” value in data set [2] and in data set [4] was “superior efficacy” throughout. In addition, in data set [2] (TETRUR, 500 g/ha, 6 dat), the inhibition at 500 g/ha stood at 100%. The inhibition at 20 g/ha in data set [4] (MYZUPE, 20 g/ha, 6 dat) amounted to 100%.
Consider `CN(C(=O)c1c(C(F)(F)F)c(C(F)(F)C(F)(F)F)nn1C)c1cccc(CNC(=O)C2CC2)c1` [Example 10], for which, in data set [2] (TETRUR, 500 g/ha, 6 dat), the inhibition at 500 g/ha is 100%. Also, the inhibition at 100 g/ha in data set [4] (MYZUPE, 100 g/ha, 6 dat) was determined as 100%.
`CC(=O)NCc1c(F)ccc(NC(=O)c2c(C(F)(F)F)c(C(F)(F)C(F)(F)F)nn2C)c1F` [Example 11]: the inhibition at 500 g/ha in data set [2] (TETRUR, 500 g/ha, 6 dat) is 90%. In data set [3] (PHAECO, 7 dat), this molecule gave an inhibition at 100 g/ha of 100%.
On to `CCC(=O)NCc1cc(NC(=O)c2c(C(F)(F)F)c(C(F)(F)F)nn2C)ccc1F` [Example 201], for which the “efficacy compared to similar compounds” value in data set [2] and in data set [4] was “superior efficacy” throughout. Further, the inhibition at 100 g/ha in data set [2] (TETRUR, 100 g/ha, 6 dat) was 100%. The inhibition at 20 g/ha in data set [4] (MYZUPE, 20 g/ha, 6 dat) was found to be 100%.
In the case of `Cn1nc(C(F)(F)F)c(C(F)(F)F)c1C(=O)Nc1ccc(F)c(CNC(=O)C2CC2)c1` [Example 298], in data set [4], the “efficacy compared to similar compounds” value is “superior efficacy”. For the same molecule, the inhibition at 20 g/ha in data set [4] (MYZUPE, 20 g/ha, 6 dat) was 90%.
As for `CC(=O)NCc1cc(NC(=O)c2c(Br)c(C(F)(F)C(F)(F)F)nn2C)ccc1F` [Example 926], the “efficacy compared to similar compounds” value in data set [2] was “superior efficacy”. The inhibition at 100 g/ha in data set [2] (TETRUR, 100 g/ha, 6 dat) is 90%.
As to `Cn1nc(C(F)(F)C(F)(F)F)c(Br)c1C(=O)Nc1ccc(F)c(CNC(=O)C2CC2)c1` [Example 933], the “efficacy compared to similar compounds” value in data set [2] and in data set [3] was “superior efficacy” throughout. In addition, in data set [2] (TETRUR, 100 g/ha, 6 dat), the inhibition at 100 g/ha was 90%. Moreover, the inhibition at 20 g/ha in data set [3] (PHAECO, 20 g/ha, 7 dat) amounted to 100%.
Take `CC(=O)NCc1cc(NC(=O)c2c(Cl)c(C(F)(F)F)nn2C)ccc1F` [Example 937]: the “efficacy compared to similar compounds” value in data set [4] is “superior efficacy”. The inhibition at 100 g/ha in data set [4] (MYZUPE, 100 g/ha, 6 dat) was found to be 90%.
As for `Cn1nc(C(F)(F)C(F)(F)F)c(C(F)(F)F)c1C(=O)Nc1cccc(C(=O)NC2CC2)c1` [Example Ik-13, reference compound], the inhibition at 500 g/ha came to 0% in data set [2] (TETRUR, 500 g/ha, 6 dat) and 0% in data set [4] (MYZUPE, 6 dat).
Take `Cn1nc(C(F)(F)F)c(Cl)c1C(=O)Nc1ccc(Cl)c(C(=O)NC2CC2)c1` [Example Ik-18, reference compound]: the inhibition at 100 g/ha in data set [4] (MYZUPE, 100 g/ha, 6 dat) was determined as 0%.
As to `Cn1nc(C(F)(F)C(F)(F)F)c(Br)c1C(=O)Nc1ccc(Cl)c(C(=O)NC2CC2)c1` [Example Ik-26, reference compound], the inhibition at 100 g/ha in data set [2] (TETRUR, 100 g/ha, 6 dat) was 0%. For the same molecule, the inhibition at 20 g/ha in data set [3] (PHAECO, 20 g/ha, 7 dat) came out at 0%.
Take `CC(C)NC(=O)c1cc(NC(=O)c2c(Br)c(C(F)(F)C(F)(F)F)nn2C)ccc1Cl` [Example Ik-27, reference compound]: the inhibition at 100 g/ha in data set [2] (TETRUR, 100 g/ha, 6 dat) turned out to be 0%.
In the case of `CCCNC(=O)c1cc(NC(=O)c2c(C(F)(F)F)c(C(F)(F)C(F)(F)F)nn2C)ccc1Cl` [Example Ik-30, reference compound], the inhibition at 20 g/ha in data set [4] (MYZUPE, 20 g/ha, 6 dat) was 0%.
Consider `CC(C)NC(=O)c1cc(NC(=O)c2c(C(F)(F)F)c(C(F)(F)C(F)(F)F)nn2C)ccc1F` [Example Ik-75, reference compound], for which the inhibition at 100 g/ha amounted to 0% in data set [2] (TETRUR, 100 g/ha, 6 dat) and 0% in data set [4] (MYZUPE, 100 g/ha, 6 dat). Moreover, the inhibition at 500 g/ha is 0% in data set [2] (TETRUR, 500 g/ha, 6 dat) and 0% in data set [4] (MYZUPE, 6 dat). Also, the inhibition at 20 g/ha in data set [3] (PHAECO, 20 g/ha, 7 dat) was found to be 0%.
Consider `CN(C(=O)c1c(C(F)(F)F)c(C(F)(F)C(F)(F)F)nn1C)c1ccc(Cl)c(C(=O)NC2CC2)c1` [Example Ik-132, reference compound], for which, in data set [4] (MYZUPE, 100 g/ha, 6 dat), the inhibition at 100 g/ha was 0%.
For `Cn1nc(C(F)(F)C(F)(F)F)c(C(F)(F)F)c1C(=O)Nc1ccc(F)c(C(=O)NC2CC2)c1` [Example Ik-155, reference compound], the inhibition at 100 g/ha in data set [2] (TETRUR, 100 g/ha, 6 dat) is 0%; in data set [4] (MYZUPE, 100 g/ha, 6 dat) it was 0%.
Turning to `Cn1nc(C(F)(F)F)c(C(F)(F)F)c1C(=O)Nc1ccc(Cl)c(C(=O)NC2CC2)c1` [Example Ik-195, reference compound], the inhibition at 20 g/ha in data set [4] (MYZUPE, 20 g/ha, 6 dat) turned out to be 0%.
